Patent publication US9827228B2, “Opioid receptor modulators and use thereof” (priority 2015, dated 2017)
Where two headings read alike, the source gives them in different places.

Biological target: T1, hMOR (Homo sapiens, UniProt P35372)
T1 construct: host or cells: CHO-K1
Assay: cell-based
Format: cell-based
Conditions: for AUC: AUC of [Ca2+]i fluorescence
Experimental: Chinese hamster ovary (CHO)-K1 cells expressing hMOR and Gα15 (CHO-K1/MOR/Gα15) were cultured in F12 medium (GIBCO) supplemented with 10 μg/mL Hygromycin B (Invivogen), 20 μg/mL Zeocin (Invivogen) and P/S/F (100 units/mL penicillin, 100 μg/mL streptomycin, 10% fetal bovine serum). The cultures were incubated at 37° C. in a humidified 5% CO2 incubator.
One day prior to running the assay, CORNING® black 96-well assay plates having a clear flat bottom were coated with a 0.1 mg/mL Poly-L-Lysine solution. CHO-K1/MOR/Gα15 cells were suspended in F12 medium and plated at a density of about 8×10^4 cells/well in 200 μL medium. Cells were incubated under a humidified atmosphere of 10% CO2 at 37° C. overnight to reach an 80-90% confluent cell monolayer before the assay. On the day of the assay, 150 μL medium was removed from each well of the plates. To each well were added FLIPR® calcium assay reagents (Molecular Devices Corporation, Sunnyvale, Calif., USA; 50 μL) dissolved in 1× assay buffer (HBSS: KCl 5 mM, KH2PO4 0.3 mM, NaCl 138 mM, NaHCO3 4 mM, Na2HPO4 0.3 mM, d-glucose 5.6 mM, with additional 20 mM HEPES and […], pH 7.4) and 2.5 mM probenecid. After incubation at 37° C. for 1 hour, a test compound, alone or together with naloxone (a MOR antagonist), was also added to each well. Using a FlexStationlll instrument (Molecular Devices Corp.), increments of the [Ca^2+]i fluorescence after robotic injection of the cell suspension were monitored at 1.52 s intervals using the excitation wavelength of 485 nm and the emission wavelength of 525 nm. The [Ca^2+]i fluorescence was measured up to 90 s after the injection. The fluorescence intensity from 6 to 12 wells of cells were averaged and the relative amount of [Ca^2+]i release was determined by integrating the AUC of the [Ca^2+]i fluorescence averages.
A CHO-K1 cell line expressing MOR and Gα15 (GenScript) was used to set up a sensitive high-throughput screen (HTS) system. […] The HTS was performed in the absence or presence of naloxone (an opioid antagonist; 20 nM), to identify AAMs.

[1] = combined with naloxone, CHO-K1/MOR/Gα15 cells
[2] = combined with naloxone, CHO-K1/MOR/Gα15 cells, read-out: EC50
[3] = EC50, combined with naloxone, CHO-K1/MOR/Gα15 cells

T1 sequence (P35372 whole entry): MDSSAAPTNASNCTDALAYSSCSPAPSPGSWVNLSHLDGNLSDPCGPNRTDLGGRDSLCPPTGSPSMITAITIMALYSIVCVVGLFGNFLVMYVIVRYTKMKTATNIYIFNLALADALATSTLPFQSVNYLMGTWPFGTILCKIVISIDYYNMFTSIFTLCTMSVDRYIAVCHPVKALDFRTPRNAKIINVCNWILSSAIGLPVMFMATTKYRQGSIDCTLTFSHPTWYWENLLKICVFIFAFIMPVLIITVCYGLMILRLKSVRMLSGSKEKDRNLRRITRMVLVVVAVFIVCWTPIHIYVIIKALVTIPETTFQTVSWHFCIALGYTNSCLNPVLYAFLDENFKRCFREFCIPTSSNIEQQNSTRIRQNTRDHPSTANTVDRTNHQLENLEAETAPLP

Row | Structure (SMILES) | AUC [1] | EC50 [2] [µM] | EC50 (EC50, combined with naloxone) [µM] | EC50 [3] [µM]
1 | Cc1nc(C)c(-c2csc(Nc3ccccc3N3CCCCC3)n2)s1 [Compound 68, 2′,4′-Dimethyl-N-[2-(1-piperidinyl)phenyl]-4,5′-bi-1,3-thiazol-2-amine] | − (−: <5000) | > 10 |  | 
2 | Cc1nc(C)c(-c2csc(Nc3ccccc3N3CCOCC3)n2)s1 [Compound 70, 2′,4′-Dimethyl-N-[2-(4-morpholinyl)phenyl]-4,5′-bi-1,3-thiazol-2-amine] | − (−: <5000) |  | < 10 | 3 to 10
3 | Cc1nc(C)c(-c2csc(Nc3ccccc3-n3cccc3)n2)s1 [Compound 72, 2′,4′-Dimethyl-N-[2-(1H-pyrrol-1-yl)phenyl]-4,5′-bi-1,3-thiazol-2-amine] | − (−: <5000) | > 10 |  | 
4 | Cc1nc(C)c(-c2csc(Nc3ccc(N(C)C)cc3C)n2)s1 [Compound 75, N^1-(2′,4′-Dimethyl-4,5′-bi-1,3-thiazol-2-yl)-N^4,N^4,2-trimethyl-1,4-benzenediamine] | − (−: <5000) | > 10 |  | 
5 | Cc1nc(C)c(-c2csc(Nc3cccc(Cl)c3C)n2)s1 [Compound 77, N-(3-Chloro-2-methylphenyl)-2′,4′-dimethyl-4,5′-bi-1,3-thiazol-2-amine] | − (−: <5000) | > 10 |  | 
6 | Cc1nc(C)c(-c2csc(Nc3ncccc3C)n2)s1 [Compound 79, 2′,4′-Dimethyl-N-(3-methyl-2-pyridinyl)-4,5′-bi-1,3-thiazol-2-amine] | − (−: <5000) | > 10 |  | 
7 | CCc1ccc(C)nc1Nc1nc(-c2sc(C)nc2C)cs1 [Compound 82, N-(3-Ethyl-6-methyl-2-pyridinyl)-2′,4′-dimethyl-4,5′-bi-1,3-thiazol-2-amine] | − (−: <5000) | > 10 |  | 
8 | COc1cccc(Nc2nc(-c3sc(C)nc3C)cs2)c1C [Compound 85, N-(3-Methoxy-2-methylphenyl)-2′,4′-dimethyl-4,5′-bi-1,3-thiazol-2-amine] | + (+: >5000) |  | < 10 | 3 to 10
9 | Cc1nc(C)c(-c2csc(Nc3cccc(C(F)(F)F)c3C)n2)s1 [Compound 87, 2′,4′-Dimethyl-N-[2-methyl-3-(trifluoromethyl)phenyl]-4,5′-bi-1,3-thiazol-2-amine] | − (−: <5000) | > 10 |  | 
10 | Cc1nc(C)c(-c2csc(Nc3cccc(O)c3C)n2)s1 [Compound 89, 3-[(2′,4′-Dimethyl-4,5′-bi-1,3-thiazol-2-yl)amino]-2-methylphenol] | − (−: <5000) | > 10 |  | 
11 | CCc1ccccc1Nc1nc(-c2sc(-c3ccccc3)nc2C)cs1 [Compound 92, N-(2-Ethylphenyl)-4′-methyl-2′-phenyl-4,5′-bi-1,3-thiazol-2-amine] | − (−: <5000) | > 10 |  | 
12 | Cc1ccc(Nc2nc(-c3sc(-c4ccccc4)nc3C)cs2)c(C)c1 [Compound 93, N-(2,4-Dimethylphenyl)-4′-methyl-2′-phenyl-4,5′-bi-1,3-thiazol-2-amine] | − (−: <5000) | > 10 |  | 
13 | CCc1ccccc1Nc1nc(-c2sc(-c3ccc(Cl)cc3)nc2C)cs1 [Compound 94, 2′-(4-Chlorophenyl)-N-(2-ethylphenyl)-4′-methyl-4,5′-bi-1,3-thiazol-2-amine] | − (−: <5000) | > 10 |  | 
14 | CCc1nc(C)c(-c2csc(Nc3ccccc3CC)n2)s1 [Compound 95, 2′-Ethyl-N-(2-ethylphenyl)-4′-methyl-4,5′-bi-1,3-thiazol-2-amine] | + (+: >5000) |  | < 10 | 3 to 10
15 | CCc1ccccc1Nc1nc(-c2sc(C)nc2C)c(C)s1 [Compound 98, N-(2-Ethylphenyl)-2′,4′,5-trimethyl-4,5′-bi-1,3-thiazol-2-amine] | − (−: <5000) | > 10 |  | 
16 | CCc1ccccc1Nc1nc(-c2sc(N)nc2C)cs1 [Compound 100, N^2-(2-ethylphenyl)-4′-methyl-4,5′-bi-1,3-thiazole-2,2′-diamine] | − (−: <5000) | > 10 |  | 
17 | CCc1ccccc1Nc1nc(-c2oc(C)nc2C)cs1 [Compound 102, 4-(2,4-Dimethyl-1,3-oxazol-5-yl)-N-(2-ethylphenyl)-1,3-thiazol-2-amine] | + (+: >5000) |  | < 10 | 3 to 10
18 | Cc1ccc(Nc2nc(-c3oc(C)nc3C)cs2)c(C)c1 [Compound 105, 4-(2,4-Dimethyl-1,3-oxazol-5-yl)-N-(2,4-dimethylphenyl)-1,3-thiazol-2-amine] | + (+: >5000) | > 10 |  | 

Row | Structure (SMILES) | AUC [1] | EC50 [2] [µM] | EC50 (EC50, combined with naloxone) [µM] | EC50 [3] [µM]
19 | Cc1cc(C)c(Nc2nc(-c3oc(C)nc3C)cs2)c(C)c1 [Compound 106, 4-(2,4-Dimethyl-1,3-oxazol-5-yl)-N-(2,4,6-trimethylphenyl)-1,3-thiazol-2-amine] | + (+: >5000) |  | < 10 | 3 to 10
20 | CCc1ccccc1Nc1ncc(-c2sc(C)nc2C)o1 [Compound 107, 5-(2,4-Dimethyl-1,3-thiazol-5-yl)-N-(2-ethylphenyl)-1,3-oxazol-2-amine] | + (+: >5000) | > 10 |  | 
21 | CCc1ccccc1Nc1ncc(-c2oc(C)nc2C)o1 [Compound 109, 5-(2,4-Dimethyl-1,3-oxazol-5-yl)-N-(2-ethylphenyl)-1,3-oxazol-2-amine] | − (−: <5000) | > 10 |  | 
22 | COC(=O)Cc1cnc(Nc2nc(-c3sc(C)nc3C)cs2)s1 [Compound 111, Methyl {2-[(2′,4′-dimethyl-4,5′-bi-1,3-thiazol-2-yl)amino]-1,3-thiazol-5-yl}acetate] | − (−: <5000) | > 10 |  | 
23 | Cc1csc(Nc2nc(-c3sc(C)nc3C)cs2)n1 [Compound 114, 2′,4′-Dimethyl-N-(4-methyl-1,3-thiazol-2-yl)-4,5′-bi-1,3-thiazol-2-amine] | − (−: <5000) | > 10 |  | 
24 | Cc1nc(C)c(-c2csc(Nc3nc4ccccc4s3)n2)s1 [Compound 117, N-(1,3-Benzothiazol-2-yl)-2′,4′-dimethyl-4,5′-bi-1,3-thiazol-2-amine] | − (−: <5000) | > 10 |  | 
25 | CCc1ccccc1Nc1nc(-c2ccc(C)cc2C)cs1 [Compound 120, 4-(2,4-Dimethylphenyl)-N-(2-ethylphenyl)-1,3-thiazol-2-amine] | − (−: <5000) | > 10 |  | 
26 | CCc1ccccc1Nc1nc(-c2ccc(C)cc2)cs1 [Compound 121, N-(2-Ethylphenyl)-4-(4-methylphenyl)-1,3-thiazol-2-amine] | − (−: <5000) | > 10 |  | 
27 | CCc1ccccc1Nc1nc(-c2ccc3c(c2)OCCCO3)cs1 [Compound 122, 4-(3,4-Dihydro-2H-1,5-benzodioxepin-7-yl)-N-(2-ethylphenyl)-1,3-thiazol-2-amine] | − (−: <5000) | > 10 |  | 
28 | CCc1ccccc1Nc1nc(-c2ccccn2)cs1 [Compound 123, N-(2-Ethylphenyl)-4-(2-pyridinyl)-1,3-thiazol-2-amine] | − (−: <5000) | > 10 |  | 
29 | CCc1ccccc1Nc1nc(-c2cccs2)cs1 [Compound 124, N-(2-Ethylphenyl)-4-(2-thiophenyl)-1,3-thiazol-2-amine] | − (−: <5000) | > 10 |  | 
30 | CCc1ccccc1Nc1nc(-c2nccs2)cs1 [Compound 126, N-(2-Ethylphenyl)-2,4′-bi-1,3-thiazol-2′-amine] | − (−: <5000) | > 10 |  | 
31 | CCc1ccccc1Nc1nc2c(s1)Cc1ccccc1-2 [Compound 127, N-(2-Ethylphenyl)-8H-indeno[1,2-d][1,3]thiazol-2-amine] | − (−: <5000) | > 10 |  | 
32 | CCOC(=O)c1cc(-c2csc(Nc3ccccc3CC)n2)on1 [Compound 128, Ethyl 5-{2-[(2-ethylphenyl)amino]-1,3-thiazol-4-yl}-1,2-oxazole-3-carboxylate] | − (−: <5000) | > 10 |  | 
33 | CCc1ccccc1Nc1nc(-c2cc(-c3ccccc3)no2)cs1 [Compound 129, N-(2-Ethylphenyl)-4-(3-phenyl-1,2-oxazol-5-yl)-1,3-thiazol-2-amine] | − (−: <5000) | > 10 |  | 
34 | Cc1nc(C)c(-c2csc(N)n2)s1 [Compound 130, 2′,4′-Dimethyl-4,5′-bi-1,3-thiazol-2-amine] | − (−: <5000) | > 10 |  | 
35 | CCc1ccccc1Nc1nccs1 [Compound 131, N-(2-Ethylphenyl)-1,3-thiazol-2-amine] | − (−: <5000) | > 10 |  | 
